According to the SangsterLogP compilation:

Row | Structure (SMILES) | logP
1 | CS(=O)(=O)c1nnnn1C1CCCCC1 | 2.1
2 | CC(=O)Oc1ccc(-n2nnnc2S(C)(=O)=O)cc1 | 1.6
3 | CN(C)c1ccc(-n2nnnc2S(C)(=O)=O)cc1 | 2.7
4 | Cc1ccc(-n2nnnc2S(C)(=O)=O)cc1 | 2.5
5 | CS(=O)(=O)c1nnnn1-c1cccc(C(F)(F)F)c1 | 2.9

Second part, the compound after the results:

Row | logP | Structure (SMILES)
6 | 1.4 | CS(=O)c1nnnn1-c1ccc([N+](=O)[O-])cc1 (stereo unspecified)
7 | 4.3 | CCCCCCS(=O)(=O)c1nnnn1-c1ccc([N+](=O)[O-])cc1
8 | 3.5 | CCCCCCS(=O)c1nnnn1-c1ccc([N+](=O)[O-])cc1 (stereo unspecified)
9 | 2.7 | CCCS(=O)(=O)c1nnnn1-c1ccc([N+](=O)[O-])cc1
10 | 2.1 | CS(=O)(=O)c1nnnn1Cc1ccc([N+](=O)[O-])cc1
11 | 4.7 | CCCCCCCCS(=O)c1nnnn1-c1ccc([N+](=O)[O-])cc1 (stereo unspecified)
